Laboratory results reported in paper PMC12454603 (Archives of Toxicology, 2025).

How the values were obtained:
[1] = In vivo kinetic study, intravenous 50 mg/kg bw, blood concentrations; conditions: rat, 50 mg/kg bw parent PAH
Experimental: Six male Sprague–Dawley rats at the age of 8–9 weeks weighing 286-305g/rat were obtained from Charles River Inc (Beijing, China). The rats were maintained in plastic cages in two groups of three in a temperature-controlled (ranging from 20 °C to 25 °C) and humidity-controlled (ranging from 40–70%) environment on a 12-h light–dark cycle. The animal bedding was corncob and used after autoclaving. The bedding and the cages were changed twice a week. The number of animals was restricted to 3 per dose group and control blood samples were collected before dosing. Feeding and living conditions followed the Chinese Laboratory Animal-Requirement of environment and housing facilities (GB14925-2010). The present rat study was approved by Institutional Animal Care and Use Committee (IACUC-BF202305006).
All animals were fasted 8 h before intravenous injection and resumed feed supply 4 h after dosing.
After administration, blood samples (0.1–0.2 ml blood volume) were taken from the medial canthus venous plexus of the animal and anticoagulated with sodium heparin. Prior to orbital venipuncture and blood collection, the animals were anesthetized by CO2 inhalation (70% CO2 + 30% O2). Blood was sampled at 1 min, 0.5, 1, 2, 4, 8, 12, 24, 32, 48, and 72 h post-dosing. After collection, blood samples were frozen and were stored at −20 °C until analysis. All animals were euthanized with 100% CO2 after the experiment.
Aliquots of 100 µL of blood samples were transferred into centrifuge tubes and 700 µL sodium acetate buffer (0.1M, pH 5.0) and 6 µL β-glucuronidase-arylsulfatase were added. The samples were incubated for 1 h at 37 °C and subsequently extracted twice with 800 µL ethyl acetate saturated with water. The samples were shaken for 30 min and centrifuged 5 min at 2000 g (4 °C). The upper organic phase was transferred to a centrifuge tube and evaporated under a gentle stream of nitrogen at 40 ℃ in a water bath. The residues were re-dissolved with 200 µL ascorbic acid:methanol (1:100). […]

[2] = tested on: ES-D3 cells (differentiation into contracting cardiomyocytes); assay: ES-D3 cell differentiation assay of the mouse embryonic stem cell test (mEST); assay type: cell-based
Experimental: The developmental toxicity of the test compounds was assessed by the inhibitory effect on the differentiation of cells of the ES-D3 cell line into contracting cardiomyocytes. The assay was performed essentially as previously described (Kamelia et al. [2020]). The cells were cultured on the lid of a 96-well plate in 45 hanging drops (volume 20 µL/drop) at a concentration of 37,500 cells/ml. The 96 wells were filled with 250 µL PBS to maintain the humidity. Sterile Eppendorf lids were placed at the corners of the 96-well plate to prevent the hanging drops from contacting the 96-well plate. The plates were sealed with micropore tape and incubated at 37 °C with 5% CO2 in a humidified atmosphere for 72 h. After 72 h, 5 ml exposure medium was prepared for each concentration of each test compound with 0.25% DMSO in a 60 × 15 mm petri dish. The formed embryonic bodies (EBs) in the hanging drops on the lid of the 96-well plate were washed off with exposure medium and collected in the petri dish. The Petri dish was subsequently incubated at 37 °C with 5% CO2 in a humidified atmosphere for 48 h. After 48 h, the EBs were transferred to a 24-well plate filled with 1 ml exposure medium per well. Each well contained 1 EB. The 24-well plates were incubated at 37 °C with 5% CO2 in a humidified atmosphere for 120 h. The number of EBs with contracting cardiomyocytes and the undifferentiated EBs were counted under a microscope. In the solvent (DMSO) control, the presence of more than 21 EBs with contracting cardiomyocytes out of 24 EBs indicates a valid assay. In each experiment, 0.5 µM (0.065 µg/ml) 5-FU was used as a positive control. The result of the differentiation assay is expressed as the fraction of differentiated EBs of the total number of EBs.
The concentration–response data for the test compounds in the mEST were presented in three curves including curves for 1-day cytotoxicity, 5-day cytotoxicity, and 10-day differentiation assays. The obtained curves were fitted using the inhibition equation log (inhibitor) vs response (three parameters) option using GraphPad Prism software 5.0 (California, USA).

Cc1ccc2c(c1)cc1ccc3c(O)ccc4ccc2c1c43 [3-OH-8-MBaP, 3-Hydroxy-8-methyl-benzo[a]pyrene]
Observed in vivo Cmax relative to the model prediction (lower) [1]: 3.4 fold
Observed in vivo blood concentration compared with that of 3-OHBaP [1]: comparable
IC50 ([2]; Mus musculus, Cardiomyocyte, 240 h, read-out: IC50 for inhibition of differentiation of ES-D3 cells into beating cardiomyocytes): 1400 nM
Fold difference between IC50 of 3-OH-8-MBaP and of 3-OHBaP (3-OH-8-MBaP lower) ([2]; differentiation assay of the mEST): 1.1 fold
